# Results published in PMC9787607, “A Novel Protocol for the Synthesis of 1,2,4-Oxadiazoles Active against Trypanosomatids and Drug-Resistant Leukemia Cell Lines” (Tropical Medicine and Infectious Disease, 2022).
# What was measured:
# K562 = experiment: MTT cytotoxicity to CML cell line K562; assay type: cell-based; settings: Homo sapiens, 72 h
# Experimental: The CML cell lines K562, Lucena-1 (K562/VCR), and FEPS (K562/DNR) were cultured in RPMI-1640 medium supplemented with 25 mM HEPES and 2 g L^−1 sodium bicarbonate adjusted to pH 7.4 with NaOH, 100 U penicillin and […] streptomycin. All media were supplemented with 10% FBS. Dr. Vivian M. Rumjanek (Instituto de Bioquímica Médica, UFRJ, Brazil) kindly donated Lucena-1 and FEPS cells. Briefly, K562 cells were exposed to increasing concentrations of the chemotherapeutic drugs vincristine sulfate (VCR) and daunorubicin hydrochloride (DNR) (both from Sigma-Aldrich), as described previously. Lucena-1 (K562/VCR) and FEPS (K562/DNR) cells were cultured in the presence of either 60 nM VCR or 500 nM DNR to maintain the MDR phenotypes. For subcultures, cells were harvested every three days followed by washing with cold FBS, and a final concentration of 2 × 10^4 cells mL^−1 was maintained at 37 °C in 5% CO2.
# Cell viability was determined by the 3-(4,5-dimethylthiazol-2-yl)-2,5-diphenyltetrazolium (MTT) colorimetric assay. CML cells (2 × 10^4 cells·mL^−1) were incubated for 72 h at 37 °C, followed by treatment with compounds at a range of concentrations (100–1 μM). Negative controls were prepared with 0.5% DMSO. An MTT salt solution was added to each well to a final concentration of 0.5 g·L^−1, and plates were incubated at 37 °C in 5% CO2 for 3 h. After centrifugation, 200 μL DMSO was added to dissolve the dark-blue formazan crystals formed by MTT reduction. Absorbance was measured on a microplate reader at 570 nm, which is directly proportional to formazan contents and indicative of living cells.
# (§1) The percent cell or parasite viability was calculated by the formula: % viability = [(A − P)/(N − P)] × 100, A = absorbance of specific well, P = positive control, N = negative control. Determination of half-maximal effective concentrations (EC50), calculated by logarithmic regression, and significance analysis (p < 0.05), using ANOVA and Dunnett’s test, by GraphPad Prism 7.0 software. The results are expressed as the mean and standard deviation (SD) of three independent experiments.
# [1] = test system: T. cruzi amastigotes (Tulahuen C2C4 LacZ strain); experiment: microbe, parasite or virus in culture; assay type: cell-based, Trypanosoma cruzi; settings: for viability at 50 µM: LLC-MK2, 120 h; for EC50: in LLC-MK2, 120 h, read-out: EC50 T. cruzi intracellular amastigotes; for S.I. (selectivity index): host cell/parasite EC50 ratio, LLC-MK2/T. cruzi
# Experimental: To a monolayer of 1.0 × 10^7 LLC-MK2 cells in a 150 cm^2 culture flask were added 5.0 × 10^7 trypomastigotes of T. cruzi expressing the […] (Tulahuen C2C4 LacZ) in complete DMEM with 2.5% FBS. The infection was allowed to occur for 24 h, the supernatant was removed, and the cell monolayer was washed with PBS. Complete DMEM with 2.5% FBS was renewed every 2 days up to the sixth day after infection. Trypomastigote forms were collected daily from the supernatant between days 7 and 12 after infection, enriched by differential centrifugation (1500× g for 10 min, 5580× g for 20 min), and resuspended in complete DMEM with 5% FBS. Parasite density was determined by counting the mobile trypomastigotes on Neubauer chambers before use.
# . The medium was renewed, and trypomastigote forms of T. cruzi (Tulahuen C2C4 LacZ strain, 2.0 × 10^5 parasites per well) were added. After incubation for 24 h at 37 °C in 5% CO2, the cell monolayer was washed with PBS to remove noninternalized parasites. DMEM without phenol red and 5% FBS was added, and infected cells were treated with compounds at a range of concentrations in triplicate (50 μM or 100–1 μM). Untreated infected cells and noninfected LLC-MK2 cells were used as negative and positive controls, respectively. Vehicle control containing DMEM without phenol red and 0.3% DMSO was maintained for comparison. After incubation for 120 h at 37 °C in 5% CO2, a solution containing […] and 0.8% IGEPAL CA-630 in PBS (30 µL per well), followed by further incubation for 2 h at 37 °C in 5% CO2. Absorbance was measured using a microplate reader at 570 nm.
# as §1
# LLC-MK2 cells = experiment: Cytotoxicity to LLC-MK2 host cells (MTT); assay type: cell-based; settings: Macaca mulatta, LLC-MK2; 120 h, MTT
# Experimental: (§2) LLC-MK2 kidney fibroblasts (ATCC) and RAW 264.7 macrophages (ATCC) were cultivated in culture flasks in complete DMEM with 5% FBS at 37 °C in 5% CO2. The LLC-MK2 cell monolayer was detached by treatment with trypsin-EDTA 0.05% for 5 min at 37 °C. The RAW cell monolayer was detached mechanically. In both cases, the cells were centrifuged at 480× g for 6 min and resuspended in complete DMEM with 5% FBS, and the cell density was determined by counting with trypan-blue dye exclusion on Neubauer chambers before use.
# (§3) LLC-MK2 cells were seeded in a 96-well microplate (1.0 × 10^4 cells per well) in complete DMEM with 5% FBS (120 µL per well). After incubation for 24 h at 37 °C in 5% CO2, the medium was renewed, and compounds were added at a range of concentrations in triplicate (50 μM or 100–1 μM). Untreated cells and cells treated with DMEM and 10% DMSO were used as negative and positive controls, respectively. Vehicle control containing DMEM and 0.3% DMSO was maintained for comparison. After incubation for 120 h at 37 °C in 5% CO2, the medium was renewed, and MTT salt solution in PBS was added (3.0 mM, 20 µL per well). After incubation for 2 h at 37 °C in 5% CO2, the supernatant was removed, and MTT formazan was dissolved in DMSO (150 µL per well). Absorbance was measured using a microplate reader at 570 nm.
# as §1
# [2] = Cytotoxicity to BALB/c mouse total splenocytes (MTT); assay type: cell-based; settings: male; for EC50 at 48 h: primary total splenocytes, MTT, read-out: EC50 murine splenocytes; for viability at 48 h, 0.4 µM / viability at 48 h, 1 µM / viability at 48 h, 2.6 µM / viability at 48 h, 6.4 µM / viability at 48 h, 16 µM / viability at 48 h, 40 µM / viability at 48 h, 100 µM: total splenocytes (primary)
# Experimental: BALB/c mouse total splenocytes were harvested from male mice between 6–8 weeks old. After euthanasia, the spleens were removed and macerated in DMEM. After centrifugation, the cells were treated with hemolytic ACK buffer at 37 °C for 5 min. […] After incubation for 48 h at 37 °C in 5% CO2, cell viability was determined after the addition of 20 µL per well of a solution containing MTT salt (3.0 mM) and phenazine metasulphate (0.72 mM). After further incubation for 1 h at 37 °C, the medium was removed, and DMSO was added to dissolve the dark-blue formazan crystals formed by MTT reduction. Absorbance was measured on a microplate reader at 570 nm.
# as §1
# [3] = Cytotoxicity to LLC-MK2 host cells (MTT); assay type: cell-based; settings: rhesus monkey, LLC-MK2 cells (kidney fibroblasts); for viability at 120 h, 50 µM: screening at 50 μM
# Experimental: as §2, §3, §1
# [4] = Trypanosoma cruzi, TULAHUEN, screening at 50 μM, 120 h, compared with untreated controls
# [5] = Table S2 dose-dependent, 100 µM
# [6] = 100 μM, 48 h, compared to the untreated control (Table S1)
Compound,EC50 (K562),"viability at 50 µM [1, 4]","EC50 ([1]; Trypanosoma cruzi, TULAHUEN)",S.I. (selectivity index) [1],"% Viability T. cruzi amastigotes ([1]; screening at 50 μM, 120 h, compared with untreated controls, 50 µM)",EC50 (LLC-MK2 cells),EC50 at 48 h ([2]; 48 h),"viability at 48 h, 0.4 µM ([2]; Table S2 dose-dependent)","viability at 48 h, 1 µM ([2]; Table S2 dose-dependent)","viability at 48 h, 2.6 µM ([2]; Table S2 dose-dependent)","viability at 48 h, 6.4 µM ([2]; Table S2 dose-dependent)","viability at 48 h, 16 µM ([2]; Table S2 dose-dependent)","viability at 48 h, 40 µM ([2]; Table S2 dose-dependent)","viability at 48 h, 100 µM [2, 5]",melting point,"viability at 120 h, 50 µM [3]","viability at 48 h, 100 µM [2, 6]","lowest concentration with significant amastigote growth inhibition compared with host cell toxicity ([1]; T. cruzi vs LLC-MK2, p < 0.05)","viability at 1 µM ([1]; Trypanosoma cruzi, TULAHUEN, LLC-MK2, T. cruzi amastigotes at 1.0 μM, read-out: amastigote viability)","viability at 120 h, 1 µM ([3]; host cells at 1.0 μM, read-out: host cell viability)"
"C(=C\c1nc(-c2ccccc2)no1)/c1cccnc1 [Compound 15, (E)-3-phenyl-5-[2-pyridyn-3-yl-vinyl]-1,2,4-oxadiazole]",27.6 ± 5.8 µM,33.8%,33.8 ± 2.3 µM,>3.0,21.5 ± 2.2%,> 100 µM,52.2 ± 4.51 µM,94.5 ± 9.1%,92.7 ± 4.1%,86.3 ± 7.5%,90.2 ± 10.7%,77.7 ± 4.8%,63.1 ± 5.8%,29.5 ± 1.6%,107 to 110 °C,,,,,
"COc1cc(/C=C/c2nc(-c3ccccc3)no2)cc(OC)c1OC [Compound 12, (E)-3-phenyl-5-[2-(3,4,5-trimethoxyphenyl)vinyl]-1,2,4-oxadiazole]",18 ± 0.9 µM,37.8 ± 2.6%,22.5 ± 3.7 µM,>4.5,,> 100 µM,,,,,,,,,,88.2 ± 5.2%,72.1 ± 6.5%,,,
"COc1cc(/C=C/c2nc(-c3cc(OC)c(OC)c(OC)c3)no2)cc(OC)c1OC [Compound 23, (E)-3-(3,4,5-trimethoxyphenyl)-5-[2-(3,4,5-trimethoxyphenyl)-vinyl]-1,2,4-oxadiazole]",13.2 ± 2.9 µM,8.6 ± 1.2%,2.9 ± 0.2 µM,26.7,,78 ± 4.7 µM,33.3 ± 2.83 µM,97.3 ± 3.3%,94.9 ± 4%,95 ± 4.4%,84.6 ± 6.7%,69.5 ± 6.4%,43.4 ± 4.2%,14.1 ± 3.5%,118 to 120 °C,64.1 ± 4.4%,,1.0 µM,81.3 ± 6.2%,93 ± 4.4%
"COc1cc(-c2noc(/C=C/c3ccc4c(c3)OCO4)n2)cc(OC)c1OC [Compound 24, (E)-3-(3,4,5-trimethoxyphenyl)-5-[2-(3,4-methylenedioxy-phenyl)vinyl]-1,2,4-oxadiazole]",60.4 ± 4.1 µM,42.2 ± 2.7%,28.7 ± 3.1 µM,1.9,,53.4 ± 2.6 µM,,,,,,,,,177 to 180 °C,55.9 ± 9.3%,72.8 ± 4.2%,,,
